Reference: patent publication US20150018546A1, “HETEROCYCLIC COMPOUND HAVING ANTI-HIV ACTIVITY” (TOYAMA CHEMICAL CO., LTD., priority 2012, published 2015)
Where a name gives a salt, the structure may show the parent alone. Read-outs that look alike come from different tables or passages of the source.

Test system: HIV-1 (JRCSF)
Assay: Anti-HIV activity in MaRBLE cells infected with HIV-1 (JRCSF), luciferase readout
Assay type: cell-based
Settings: Human immunodeficiency virus 1, 168 h, read-out: Anti-HIV activity IC50
Method: This test was conducted with reference to Journal of Clinical Microbiology, 2007, Vol. 45, p. 477-487.
The anti-HIV activity was evaluated using MaRBLE cells in which a luciferase gene to be expressed under the control of HIV-1 LTR and a CCR5 gene, etc. were introduced in human T lymphocyte-derived HPB-M(a).
A fresh medium or each appropriately diluted test compound was dispensed to 96-well plates to prepare drug solution-containing plates.
The MaRBLE cells were suspended in RPMI1640 containing 10% FCS (fetal calf serum) and penicillin/streptomycin and infected with HIV-1 (JRCSF). Then, the cells were inoculated to the drug solution-containing plates (1×10^5 cells/well). The same number of uninfected cells were inoculated as a control group to the drug solution-containing plates.
After culture at 37° C. for 7 days in a 5% CO2 atmosphere, the intracellular luciferase activity was measured using Steady-Glo Luciferase assay system (Promega Corp.).
The rate of viral proliferation was determined according to the following expression:
Rate of viral proliferation(%)=(A/B)×100
A=(Firefly luciferase activity of the compound-supplemented well)−(Firefly luciferase activity of the uninfected cells)
B=(Firefly luciferase activity of the compound-free well)−(Firefly luciferase activity of the uninfected cells)
IC50 of the compound was calculated by a plot with concentration as the logarithm and the rate of viral proliferation as the real part using the FORECAST function (linear regression method) of Microsoft Office Excel 2003.

[1] = MaRBLE cells (human T lymphocyte-derived HPB-M(a)) infected with HIV-1 (JRCSF), 7 days culture, rate of viral proliferation by luciferase activity

Structure (SMILES)	IC50 [1]	IC50
Cc1ncnc2c1c(NCc1ccccc1-c1cccnc1)cc(=O)n2O [Example 72, 8-hydroxy-4-methyl-5-((2-(pyridin-3-yl)benzyl)amino)pyrido[2,3-d]pyrimidin-7(8H)-one]	150 nM	–
Cc1ncnc2c1c(NCc1cc3ccccc3[nH]1)cc(=O)n2O [Example 95, 8-hydroxy-5-(((1H-indol-2-yl)methyl)amino)-4-methylpyrido[2,3-d]pyrimidin-7(8H)-one]	110 nM	–
O=c1cc(NC2CCCCC2)c2cncnc2n1O [Example 8, 5-(cyclohexylamino)-8-hydroxypyrido[2,3-d]pyrimidin-7(8H)-one]	220 nM	–
O=c1cc(NCc2ccc(F)cc2F)c2cncnc2n1O [Example 6, 5-((2,4-difluorobenzyl)amino)-8-hydroxypyrido[2,3-d]pyrimidin-7(8H)-one]	180 nM	–
COc1cccc(CNc2cc(=O)n(O)c3ncnc(C)c23)c1 [Example 31, 8-hydroxy-5-((3-methoxybenzyl)amino)-4-methylpyrido[2,3-d]pyrimidin-7(8H)-one]	230 nM	–
Cc1ncnc2c1c(NCc1ccc(N)nc1)cc(=O)n2O [Example 162, 5-(((6-aminopyridin-3-yl)methyl)amino)-8-hydroxy-4-methylpyrido[2,3-d]pyrimidin-7(8H)-one]	67 nM	–
Cc1ccc(CNc2cc(=O)n(O)c3ncnc(C)c23)cc1 [Example 43, 8-hydroxy-4-methyl-5-((4-methylbenzyl)amino)pyrido[2,3-d]pyrimidin-7(8H)-one]	39 nM	–
Cc1ncnc2c1c(NCCCN(C)C)cc(=O)n2O [Example 155, 5-((3-(dimethylamino)propyl)amino)-8-hydroxy-4-methylpyrido[2,3-d]pyrimidin-7(8H)-one hydrochloride]	–	230 nM
Cc1ncnc2c1c(NCCCc1cccnc1)cc(=O)n2O [Example 161, 8-hydroxy-4-methyl-5-((3-(pyridin-3-yl)propyl)amino)pyrido[2,3-d]pyrimidin-7(8H)-one]	180 nM	–
Cc1ncnc2c1c(NCc1ccccc1CN)cc(=O)n2O [Example 140, 5-((2-(aminomethyl)benzyl)amino)-8-hydroxy-4-methylpyrido[2,3-d]pyrimidin-7(8H)-one]	190 nM	–
Cc1ncnc2c1c(NCc1ccccc1NS(C)(=O)=O)cc(=O)n2O [Example 122, N-(2-(((8-hydroxy-4-methyl-7-oxo-7,8-dihydropyrido[2,3-d]pyrimidin-5-yl)amino)methyl)phenyl)methanesulfonamide]	100 nM	–
O=C(NCc1ccccc1)c1cc2c(NCc3ccccc3)ncnc2n(O)c1=O [Example 70, N-benzyl-4-(benzylamino)-8-hydroxy-7-oxo-7,8-dihydropyrido[2,3-d]pyrimidine-6-carboxamide]	790 nM	–
Cc1ncnc2c1c(NCc1ccc(C(C)C)cc1)cc(=O)n2O [Example 152, 8-hydroxy-5-((4-isopropylbenzyl)amino)-4-methylpyrido[2,3-d]pyrimidin-7(8H)-one]	95 nM	–
Cc1ncnc2c1c(NCc1cccc(NS(C)(=O)=O)c1)cc(=O)n2O [Example 126, N-(3-(((8-hydroxy-4-methyl-7-oxo-7,8-dihydropyrido[2,3-d]pyrimidin-5-yl)amino)methyl)phenyl)methanesulfonamide]	140 nM	–
Cc1cccc(CNc2cc(=O)n(O)c3ncnc(C)c23)c1 [Example 137, 8-hydroxy-4-methyl-5-((3-methylbenzyl)amino)pyrido[2,3-d]pyrimidin-7(8H)-one]	82 nM	–
CN(C)c1ccc(CNc2cc(=O)n(O)c3ncncc23)cc1 [Example 102, 5-((4-(dimethylamino)benzyl)amino)-8-hydroxypyrido [2,3-d]pyrimidin-7(8H)-one]	210 nM	–
Cc1ncnc2c1c(O)c(-c1ccccc1)c(=O)n2O [Example 64, 5,8-dihydroxy-4-methyl-6-phenylpyrido[2,3-d]pyrimidin-7(8H)-one]	350 nM	–
O=c1cc(O)c2c(-c3ccccc3)ncnc2n1O [Example 61, 5,8-dihydroxy-4-phenylpyrido[2,3-d]pyrimidin-7(8H)-one]	490 nM	–
O=C(NCc1ccccc1)c1c(O)c2c(NCc3ccccc3)ncnc2n(O)c1=O [Example 78, N-benzyl-4-(benzylamino)-5,8-dihydroxy-7-oxo-7,8-dihydropyrido[2,3-d]pyrimidine-6-carboxamide]	300 nM	–
Cc1ncnc2c1c(NCc1ccc3[nH]ccc3c1)cc(=O)n2O [Example 93, 8-hydroxy-5-(((1H-indol-5-yl)methyl)amino)-4-methylpyrido[2,3-d]pyrimidin-7(8H)-one]	45 nM	–

Structure (SMILES)	IC50 [1]	IC50
Cc1ncnc2c1c(NCc1ccc(OCC(F)(F)F)nc1)cc(=O)n2O [Example 58, 8-hydroxy-4-methyl-5-(((6-(2,2,2-trifluoroethoxy)pyridin-3-yl)methyl)amino)pyrido[2,3-d]pyrimidin-7(8H)-one]	94 nM	–
Cc1ncnc2c1c(NCc1ccccc1N)cc(=O)n2O [Example 123, 5-((2-aminobenzyl)amino)-8-hydroxy-4-methylpyrido[2,3-d]pyrimidin-7(8H)-one]	78 nM	–
O=C(Nc1ccccc1)c1c(O)c2c(Nc3ccccc3)ncnc2n(O)c1=O [Example 81, 4-anilino-5,8-dihydroxy-7-oxo-N-phenyl-7,8-dihydropyrido[2,3-d]pyrimidine-6-carboxamide]	360 nM	–
Cc1ncnc2c1c(NCc1cccc(N)c1)cc(=O)n2O [Example 129, 5-((3-aminobenzyl)amino)-8-hydroxy-4-methylpyrido[2,3-d]pyrimidin-7(8H)-one]	91 nM	–
O=C(NCc1ccccc1)c1c(O)c2cncnc2n(O)c1=O [Example 105, N-benzyl-5,8-dihydroxy-7-oxo-7,8-dihydropyrido[2,3-d]pyrimidine-6-carboxamide]	64 nM	–
O=c1cc(O)c2c(NCc3ccccc3)ncnc2n1O [Example 79, 4-(benzylamino)-5,8-dihydroxypyrido[2,3-d]pyrimidine-7(8H)-one]	820 nM	–
O=c1cc(NCc2ccc(O)c(O)c2)c2cncnc2n1O [Example 108, 5-((3,4-dihydroxybenzyl)amino)-8-hydroxypyrido[2,3-d]pyrimidin-7(8H)-one]	570 nM	–
Cc1ncnc2c1c(NCCc1ccccn1)cc(=O)n2O [Example 92, 8-hydroxy-4-methyl-5-((2-(pyridin-2-yl)ethyl)amino)pyrido[2,3-d]pyrimidin-7(8H)-one]	31 nM	–
Cc1ncnc2c1c(NCc1ccc(OCCO)cc1)cc(=O)n2O [Example 144, 8-hydroxy-5-((4-(2-hydroxyethoxy)benzyl)amino)-4-methylpyrido[2,3-d]pyrimidin-7(8H)-one]	90 nM	–
Cc1ncnc2c1c(NC(C)c1cccnc1)cc(=O)n2O (stereo not shown) [Example 53, 8-hydroxy-4-methyl-5-((1-(pyridin-3-yl)ethyl)amino)pyrido[2,3-d]pyrimidin-7(8H)-one]	80 nM	–
Cc1ncnc2c1c(NC(c1ccccc1)c1ccccc1)cc(=O)n2O [Example 59, 5-((diphenylmethyl)amino)-8-hydroxy-4-methylpyrido[2,3-d]pyrimidin-7(81-1)-one]	160 nM	–
Cc1ncnc2c1c(NCc1ncc[nH]1)cc(=O)n2O [Example 154, 8-hydroxy-5-(((1H-imidazol-2-yl)methyl)amino)-4-methylpyrido[2,3-d]pyrimidin-7(8H)-one]	720 nM	–
Cc1ccccc1CNc1cc(=O)n(O)c2ncnc(C)c12 [Example 46, 8-hydroxy-4-methyl-5-((2-methylbenzyl)amino)pyrido[2,3-d]pyrimidin-7(8H)-one]	40 nM	–
Cc1ncnc2c1c(NCc1cccc(Cl)c1)cc(=O)n2O [Example 47, 5-((3-chlorobenzyl)amino)-8-hydroxy-4-methylpyrido[2,3-d]pyrimidin-7(8H)-one]	59 nM	–
O=c1cc(NCc2ccccc2)c2cncnc2n1O [Example 2, 5-(benzylamino)-8-hydroxypyrido[2,3-d]pyrimidin-7(8H)-one]	120 nM	–
Cc1ncnc2c1c(NCc1ccccc1N1CCCCC1)cc(=O)n2O [Example 138, 8-hydroxy-4-methyl-5-((2-(piperidin-1-yl)benzyl)amino)pyrido[2,3-d]pyrimidin-7(8H)-one]	94 nM	–
O=c1cc(NCc2ccc(-c3ccccc3)cc2)c2cncnc2n1O [Example 97, 5-(((biphenyl-4-yl)methyl)amino)-8-hydroxypyrido[2,3-d]pyrimidin-7(8H)-one]	200 nM	–
Cc1ncnc2c1c(O)c(C(=O)NCc1ccccc1)c(=O)n2O [Example 111, N-benzyl-5,8-dihydroxy-4-methyl-7-oxo-7,8-dihydropyrido[2,3-d]pyrimidine-6-carboxamide]	8.4 nM	–
COc1ncccc1CNc1cc(=O)n(O)c2ncnc(C)c12 [Example 157, 8-hydroxy-5-(((2-methoxypyridin-3-yl)methyl)amino)-4-methylpyrido[2,3-d]pyrimidin-7(8H)-one]	44 nM	–
Cc1ncnc2c1c(NCc1ccc(O)c(O)c1)cc(=O)n2O [Example 113, 5-((3,4-dihydroxybenzyl)amino)-8-hydroxy-4-methylpyrido[2,3-d]pyrimidin-7(8H)-one]	73 nM	–
